Among the data in ChEMBL document CHEMBL3639166, “Heteroaryloxyheterocyclyl compounds as PDE10 inhibitors” (2013) are IC50 values, retold here.

The structures appear in SMILES notation.

For this experiment, the target named is T1, cAMP and cAMP-inhibited cGMP 3',5'-cyclic phosphodiesterase 10A (Rattus norvegicus, UniProt Q9QYJ6).
T1 sequence (Q9QYJ6 whole entry): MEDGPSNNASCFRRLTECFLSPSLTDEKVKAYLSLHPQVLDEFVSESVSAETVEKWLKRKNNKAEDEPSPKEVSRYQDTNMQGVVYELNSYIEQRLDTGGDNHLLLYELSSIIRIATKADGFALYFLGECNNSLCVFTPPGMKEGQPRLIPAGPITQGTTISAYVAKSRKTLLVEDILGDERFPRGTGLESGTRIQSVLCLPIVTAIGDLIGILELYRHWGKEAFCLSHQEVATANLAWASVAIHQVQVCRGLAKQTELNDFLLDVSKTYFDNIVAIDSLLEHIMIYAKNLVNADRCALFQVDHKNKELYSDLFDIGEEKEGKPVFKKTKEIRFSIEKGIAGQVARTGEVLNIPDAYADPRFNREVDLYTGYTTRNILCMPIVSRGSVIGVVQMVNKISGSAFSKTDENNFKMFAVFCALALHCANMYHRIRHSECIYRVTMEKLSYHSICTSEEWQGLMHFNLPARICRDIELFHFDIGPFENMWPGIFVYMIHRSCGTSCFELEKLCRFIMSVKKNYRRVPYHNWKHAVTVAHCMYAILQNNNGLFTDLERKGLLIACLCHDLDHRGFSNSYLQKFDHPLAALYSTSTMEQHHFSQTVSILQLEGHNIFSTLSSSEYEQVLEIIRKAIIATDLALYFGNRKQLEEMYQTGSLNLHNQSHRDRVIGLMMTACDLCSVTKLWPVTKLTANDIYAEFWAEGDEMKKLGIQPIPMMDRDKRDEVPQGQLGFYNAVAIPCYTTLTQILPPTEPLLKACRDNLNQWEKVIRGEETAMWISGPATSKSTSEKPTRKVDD
The experiment can be described thus: Enzyme Inhibition Assay: Enzyme activity: An IMAP TR-FRET assay was used to analyze the enzyme activity (Molecular Devices Corp., Sunnyvale, Calif). (Time-resolved FRET reads energy transfer from a long-lived donor to a nearby acceptor.)
On to `OCC1CCN(c2cncc(OC3CN(c4ccc5ccccc5n4)C3)n2)CC1`, for which half-maximal inhibition (IC50) required 0.639 nM. The value for `OCC1CCN(c2nccnc2OC2CN(c3ccc4ccccc4n3)C2)CC1` was 2.3 nM. Regarding `OCC1CCN(c2nccnc2OC2CN(c3cnc4ccccc4n3)C2)CC1`, the IC50 (usually the concentration that inhibits the measured activity by half) came out at 37.8 nM. This IC50 is about 16-fold higher than that of the molecule before. Molecule `OCC1CCN(c2nccnc2O[C@@H]2CCN(c3ccc4ccccc4n3)C2)CC1` gave an IC50 of 167 nM. The value for `OCC1CCN(c2nccnc2O[C@H]2CCN(c3ccc4ccccc4n3)C2)CC1` was 78 nM. As for `OCC1CCN(c2nc3ccccc3nc2OC2CN(c3ccc4ccccc4n3)C2)CC1`, the figure is 9.75 nM. The value for `OC1CCN(c2nccnc2OC2CN(c3ccc4ccccc4n3)C2)CC1` was 26.1 nM; that for `CC1CCN(c2nccnc2OC2CN(c3ccc4ccccc4n3)C2)CC1` was 124 nM. Regarding `CN(C)C1CCN(c2nccnc2OC2CN(c3ccc4ccccc4n3)C2)CC1`, the midpoint of inhibition, the IC50, lay at 520 nM. The value for `Cc1ccc(-c2nccnc2OC2CN(c3ccc4ccccc4n3)C2)cc1` was 98.7 nM.

The molecule `CNC(=O)c1ccc(-c2nccnc2OC2CN(c3ccc4ccccc4n3)C2)cc1` gave an IC50 of 15 nM.

Consider `N#Cc1ccc(-c2nccnc2OC2CN(c3ccc4ccccc4n3)C2)cc1`, for which the IC50 was determined as 39.4 nM. Molecule `c1ccc(-c2nccnc2OC2CN(c3ccc4ccccc4n3)C2)nc1` came in with an IC50 of 1220 nM. As for `c1ccc2nc(N3CC(Oc4nccnc4-c4ccncc4)C3)ccc2c1`, the figure is 24.5 nM. As for `N#CC1CCN(c2cccnc2OC2CN(c3ccc4ccccc4n3)C2)CC1`, the figure is 68.9 nM. The value for `OC1CCN(c2nccnc2OC2CCN(c3ccc4ccccc4n3)CC2)CC1` was 198 nM; that for `c1ccc2nc(N3CCC(Oc4nccnc4N4CCOCC4)CC3)ccc2c1` was 254 nM.

As to `O[C@@H]1CCN(c2nccnc2OC2CCN(c3ccc4ccccc4n3)CC2)C1`, the IC50 is 356 nM. The value for `O[C@H]1CCN(c2nccnc2OC2CCN(c3ccc4ccccc4n3)CC2)C1` was 198 nM; that for `OC1CN(c2nccnc2OC2CCN(c3ccc4ccccc4n3)CC2)C1` was 1220 nM. As for `c1ccc2nc(N3CCC(Oc4nccnc4N4CCCCC4)CC3)ccc2c1`, the figure is 403 nM; as for `c1ccc2nc(N3CCC(Oc4nccnc4N4CCCC4)CC3)ccc2c1`, 286 nM. On to `c1ccc2nc(N3CCC(Oc4nccnc4N4CCC4)CC3)ccc2c1`, for which the IC50 is 273 nM. Molecule `c1ccc2nc(N3CCC(Oc4nccnc4N4CC5(COC5)C4)CC3)ccc2c1` showed an IC50 of 345 nM. For the molecule `c1ccc2nc(N3CC(Oc4nccnc4N4CCC5(CC4)COC5)C3)ccc2c1`, half-maximal inhibition (IC50) was put at 43.6 nM. Regarding `C1=CCN(c2nccnc2OC2CN(c3ccc4ccccc4n3)C2)CC1`, the IC50 came to 314 nM. `c1ccc2nc(N3CC(Oc4nccnc4N4CCC4)C3)ccc2c1` displayed an IC50 of 86.1 nM. The value for `c1ccc2nc(N3CC(Oc4nccnc4N4CCCC4)C3)ccc2c1` was 10000 nM.

With `c1ccc2nc(N3CC(Oc4nccnc4N4CCCCCC4)C3)ccc2c1`, it took 334 nM to reach half-maximal inhibition (IC50). The value for `OC[C@H]1CCCN1c1nccnc1OC1CN(c2ccc3ccccc3n2)C1` was 150 nM; that for `c1ccc2nc(N3CC(Oc4nccnc4N4CCCOCC4)C3)ccc2c1` was 44.6 nM. Molecule `OC1CCCN(c2nccnc2OC2CN(c3ccc4ccccc4n3)C2)CC1` (centres undefined) gave an IC50 of 29.5 nM. This IC50 is about 1.5-fold lower than that of the molecule before. `CN1CCCN(c2nccnc2OC2CN(c3ccc4ccccc4n3)C2)CC1` yielded an IC50 of 2990 nM. The molecule `OCC1CCN(c2nccnc2NC2CN(c3ccc4ccccc4n3)C2)CC1` yielded an IC50 of 20 nM.

In turn, `OCC1CCN(c2ccc(Br)c(OC3CN(c4ccc5ccccc5n4)C3)n2)CC1` returned an IC50 of 0.229 nM. For `OCC1CCN(c2ncc(Cl)c(OC3CN(c4ccc5ccccc5n4)C3)n2)CC1`, half-maximal inhibition (IC50) required 10 nM. Against the preceding molecule, the IC50 is about 44-fold higher. Take `OCC1CCN(c2ncc(F)c(OC3CN(c4ccc5ccccc5n4)C3)n2)CC1`: the midpoint of inhibition, the IC50, lay at 20 nM. As for `OCC1CCN(c2ncc(Br)c(OC3CN(c4cnc5ccccc5n4)C3)n2)CC1`, the figure is 24.2 nM; as for `OC1CCN(c2ncc(Br)c(OC3CN(c4ccc5ccccc5n4)C3)n2)CC1`, 73.7 nM.

In turn, `COC(=O)C1CCN(c2ncc(Br)c(OC3CN(c4ccc5ccccc5n4)C3)n2)CC1` displayed an IC50 of 1340 nM. Against the preceding molecule, the IC50 is about 18-fold higher. For `CC1CCN(c2ncc(Br)c(OC3CN(c4ccc5ccccc5n4)C3)n2)CC1`, the IC50 came out at 358 nM. The value for `OCC1CCN(c2ncc(Br)c(OC3CN(c4ccc5ccccc5n4)C3)n2)C1` (centres undefined) was 20.6 nM; that for `OCC1CCN(c2ncc(Br)c(OC3CN(c4ncc5ccccc5n4)C3)n2)CC1` was 14.6 nM; that for `CN1CCN(c2nccnc2OC2CN(c3ccc4ccccc4n3)C2)CC1` was 683 nM.

For the molecule `N#CC1CCN(c2nc3ccccc3nc2OC2CN(c3ccc4ccccc4n3)C2)CC1`, it took 19.2 nM to reach half-maximal inhibition (IC50). Compared with the last molecule, the IC50 is about 36-fold lower. The value for `CN1CCN(c2nccnc2OC2CN(c3ccc4ccccc4n3)C2)CC1=O` was 33.9 nM; that for `OCC1CCCN(c2nccnc2OC2CN(c3ccc4ccccc4n3)C2)C1` (centres undefined) was 40.6 nM; that for `OC1CCN(c2nccnc2OC2CN(c3ccc4ccccc4n3)C2)C1` (centres undefined) was 67 nM. As for `c1ccc2nc(N3CC(Oc4nccnc4N4CCC(N5CCCC5)CC4)C3)ccc2c1`, the figure is 571 nM; as for `CC1CN(c2nccnc2OC2CN(c3ccc4ccccc4n3)C2)CCO1` (centres undefined), 62.8 nM; as for `OCC1CN(c2nccnc2OC2CN(c3ccc4ccccc4n3)C2)CCO1` (centres undefined), 88.6 nM. As for `O=C(c1nc2ccccc2[nH]1)N1CC(Oc2nccnc2N2CCOCC2)C1`, the figure is 377 nM; as for `CC(=O)N1CCN(c2nccnc2OC2CN(C(=O)c3nc4ccccc4[nH]3)C2)CC1`, 637 nM; as for `O=C(c1nc2ccccc2[nH]1)N1CC(Oc2nccnc2N2CCC(O)CC2)C1`, 186 nM.

`N#CC1CCN(c2cc(F)cnc2OC2CN(c3ccc4ccccc4n3)C2)CC1` registered an IC50 of 15.1 nM. As for `Cc1cnc(OC2CN(c3ccc4ccccc4n3)C2)c(N2CCC(CO)CC2)c1`, the figure is 1.52 nM.

As for `OCC1CCN(c2ncc(Br)c(OC3CN(c4ccc5ccccc5n4)C3)n2)CC1`, the IC50 came to 7 nM. The value for `OCC1CCCN(c2ncc(Br)c(OC3CN(c4ccc5ccccc5n4)C3)n2)C1` (centres undefined) was 60 nM; that for `OCC1CCCCN1c1ncc(Br)c(OC2CN(c3ccc4ccccc4n3)C2)n1` (centres undefined) was 260 nM; that for `OCC1CCN(c2ncc(N3CCCCC3)c(OC3CN(c4ccc5ccccc5n4)C3)n2)CC1` was 18.4 nM. The molecule `CC(O)C1CCN(c2nccnc2OC2CN(c3ccc4ccccc4n3)C2)CC1` (centres undefined) showed an IC50 of 46.9 nM. Turning to `CC(O)C1CCN(c2ncc(Br)c(OC3CN(c4ccc5ccccc5n4)C3)n2)CC1` (centres undefined), the IC50 was determined as 242 nM.

For the molecule `CC(=O)N1CC2(C1)CN(c1nccnc1OC1CCN(c3ccc4ccccc4n3)CC1)C2`, it took 1270 nM to reach half-maximal inhibition (IC50).

Regarding `CC(=O)N1CCN(c2nccnc2OC2CN(c3ccc4ccccc4n3)C2)CC1`, the concentration for half-maximal inhibition (IC50) was determined as 77.5 nM. `COC1CCN(c2nccnc2OC2CCN(c3ccc4ccccc4n3)CC2)CC1` returned an IC50 of 59.6 nM. As for `COCC1CCN(c2nccnc2OC2CCN(c3ccc4ccccc4n3)CC2)CC1`, the figure is 1120 nM; as for `O=C1CCN(c2nccnc2OC2CCN(c3ccc4ccccc4n3)CC2)CC1`, 195 nM.

Turning to `O=C1CCN(c2nccnc2OC2CN(c3ccc4ccccc4n3)C2)CC1`, the IC50 was 110 nM. Compared with the last molecule, the IC50 is about 1.8-fold lower. The value for `CC(C)(O)C1CCN(c2nccnc2OC2CCN(c3ccc4ccccc4n3)CC2)CC1` was 85.8 nM.

`CC(C)(O)C1CCN(c2nccnc2OC2CN(c3ccc4ccccc4n3)C2)CC1` yielded an IC50 of 83.6 nM. As for `Cc1cnccc1-c1nccnc1OC1CCN(c2ccc3ccccc3n2)CC1`, the figure is 34.7 nM. As for `c1ccc2nc(N3CCC(Oc4nccnc4-c4ccncc4)CC3)ccc2c1`, the figure is 35.7 nM; as for `COc1ncccc1-c1nccnc1OC1CCN(c2ccc3ccccc3n2)CC1`, 118 nM. The value for `Clc1cnccc1-c1nccnc1OC1CCN(c2ccc3ccccc3n2)CC1` was 83.9 nM; that for `Cc1cnccc1-c1nccnc1OC1CN(c2ccc3ccccc3n2)C1` was 298 nM; that for `Clc1cnccc1-c1nccnc1OC1CN(c2ccc3ccccc3n2)C1` was 155 nM. In turn, `Cc1ccccc1-c1nccnc1OC1CN(c2ccc3ccccc3n2)C1` returned an IC50 of 128 nM. The value for `COc1ccccc1-c1nccnc1OC1CN(c2ccc3ccccc3n2)C1` was 150 nM. As for `Fc1cc(-c2nccnc2OC2CN(c3ccc4ccccc4n3)C2)ccn1`, the figure is 39.5 nM; as for `N#Cc1ccccc1-c1nccnc1OC1CN(c2ccc3ccccc3n2)C1`, 377 nM; as for `Cc1cc(F)ccc1-c1nccnc1OC1CN(c2ccc3ccccc3n2)C1`, 918 nM.

Take `CN(C)C(=O)c1ccc(-c2nccnc2OC2CN(c3ccc4ccccc4n3)C2)cc1`: it took 15 nM to reach half-maximal inhibition (IC50).

Molecule `CC(=O)c1cccc(-c2nccnc2OC2CN(c3ccc4ccccc4n3)C2)c1` showed an IC50 of 11.2 nM. As for `CN(C)C(=O)c1cccc(-c2nccnc2OC2CN(c3ccc4ccccc4n3)C2)c1`, the IC50 was 22.8 nM.
